According to ChEMBL document CHEMBL5352391, “New structural classes of antimalarials” (Eur J Med Chem, 2022):
pEC50, pIC50, pKi: −log10 of the molar value. Values after ≈ are worked out from the molar mass of the structure shown. One block for each compound: values may come before it.

Experiments:
Plasmodium falciparum [1] = assay: Antimalarial activity against Plasmodium falciparum 3D7 assessed as inhibition of parasite growth by measuring minimum inhibitory concentration by microassay; format: functional
Plasmodium falciparum [2] = assay: Antimalarial activity against Plasmodium falciparum 3D7 assessed as reduction of parasite growth at 25 uM incubated for 96 hrs by SYBR green I dye based fluorescence assay relative to control; format: functional; design: scale not given: the % may be the effect or the level left
Plasmodium falciparum [3] = assay: Antimalarial activity against Plasmodium falciparum 3D7 assessed as reduction of parasite growth incubated for 96 hrs by SYBR green I dye based fluorescence assay; format: functional, organism-based; details: 3D7, 96 h
Falcipain 2 = biological target: T1, Falcipain 2 (Plasmodium falciparum, UniProt Q9N6S8); assay: Inhibition of Plasmodium falciparum recombinant His-tagged falcipain-2 expressed in Escherichia coli assessed as inhibition constant using Cbz-Phe-Arg-AMC as substrate by fluorescence spectrophotometer assay
T1 sequence (Q9N6S8 whole entry): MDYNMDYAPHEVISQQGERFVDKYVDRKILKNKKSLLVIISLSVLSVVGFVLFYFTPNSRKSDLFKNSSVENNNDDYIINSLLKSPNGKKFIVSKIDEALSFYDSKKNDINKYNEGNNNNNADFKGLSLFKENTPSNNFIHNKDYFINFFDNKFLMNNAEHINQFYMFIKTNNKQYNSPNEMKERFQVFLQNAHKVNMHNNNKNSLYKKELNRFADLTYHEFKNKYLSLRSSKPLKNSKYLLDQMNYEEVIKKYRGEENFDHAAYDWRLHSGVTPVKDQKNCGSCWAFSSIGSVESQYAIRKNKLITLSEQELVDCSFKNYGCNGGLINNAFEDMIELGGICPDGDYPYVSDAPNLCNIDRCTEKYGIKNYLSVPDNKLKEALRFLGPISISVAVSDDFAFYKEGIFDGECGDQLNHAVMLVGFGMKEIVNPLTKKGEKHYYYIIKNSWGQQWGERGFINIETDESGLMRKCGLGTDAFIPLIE

Plasmodium falciparum [4] = assay: Antiplasmodial activity against chloroquine resistant Plasmodium falciparum K14 assessed as inhibition of parasite growth incubated for 42 hrs by [3H]-hypoxanthine incorporation based microbeta scintillation counting method; format: functional, organism-based
Plasmodium falciparum [5] = assay: Antiplasmodial activity against mixture of chloroquine resistant Plasmodium falciparum RKL 303-chloroquine sensitive Plasmodium falciparum 3D7 infected in human erythrocyte assessed as inhibition of parasite growth incubated for 48 hrs by Giemsa staining based microscopic analysis; format: functional, organism-based
[6] = Retention time of the compound by HPLC-MS analysis; format: physicochemical
Plasmodium falciparum [7] = assay: Antiplasmodial activity against Plasmodium falciparum K1 infected in human erythrocyte assessed as inhibition of parasite growth incubated for 72 hrs by [3H]-hypoxanthine incorporation based liquid scintillation counting method; format: functional, organism-based
Plasmodium falciparum [8] = assay: Antiplasmodial activity against chloroquine sensitive Plasmodium falciparum GC03 infected in human erythrocyte assessed as inhibition of parasite growth incubated for 48 hrs by SYBR Green dye based fluorescence assay; format: functional, organism-based
Plasmodium falciparum [9] = assay: Antiplasmodial activity against chloroquine resistant Plasmodium falciparum RKL-2 assessed as inhibition of parasite growth incubated for 36 to 40 hrs by Giemsa staining based microscopic analysis; format: functional, organism-based
Plasmodium falciparum [10] = assay: Antiplasmodial activity against erythrocytic stage of Plasmodium falciparum 3D7 assessed as reduction of parasite growth incubated for 100 hrs by SYBR Green dye based fluorescence assay; format: functional, organism-based; details: 3D7, 100 h
Plasmodium falciparum [11] = assay: Antiplasmodial activity against erythrocytic stage of Plasmodium falciparum K1 assessed as reduction of parasite growth incubated for 48 hrs by [3H]-hypoxanthine incorporation based beta-plate liquid scintillation counting method; format: functional, organism-based
Plasmodium falciparum [12] = assay: Antiplasmodial activity against erythrocytic stage of Plasmodium falciparum NF54 assessed as reduction of parasite growth incubated for 48 hrs by [3H]-hypoxanthine incorporation based beta-plate liquid scintillation counting method; format: functional, organism-based
[13] = Selectivity index, ratio of CC50 for cytotoxicity against human HepG2 cells by MTT assay to EC50 for antiplasmodial activity against erythrocytic stage of Plasmodium falciparum NF54 by [3H]-hypoxanthine incorporation based liquid scintillation counting method; format: toxicity, cell-based; details: read-out: Ratio CC50/EC50
[14] = Cytotoxicity against human HepG2 cells assessed as reduction in cell viability incubated for 72 hrs by MTT assay; format: toxicity, cell-based
[15] = Selectivity index, ratio of CC50 for cytotoxicity against human HepG2 cells by MTT assay to EC50 for antiplasmodial activity against erythrocytic stage of Plasmodium falciparum K1 by [3H]-hypoxanthine incorporation based liquid scintillation counting method; format: toxicity, cell-based; details: read-out: Ratio CC50/EC50
[16] = Selectivity index, ratio of CC50 for cytotoxicity against human HepG2 cells by MTT assay to EC50 for antiplasmodial activity against erythrocytic stage of Plasmodium falciparum 3D7 by SYBR Green dye based fluorescence assay; format: toxicity, cell-based; details: read-out: Ratio CC50/EC50
Plasmodium falciparum [17] = assay: Antiplasmodial activity against chloroquine resistant Plasmodium falciparum K14 assessed as inhibition of parasite growth incubated for 48 hrs by [3H]-hypoxanthine incorporation based microbeta scintillation counting method; format: functional, organism-based
Plasmodium falciparum [18] = assay: Antiplasmodial activity against chloroquine sensitive Plasmodium falciparum 3D7 assessed as inhibition of parasite growth incubated for 48 hrs by Malstat reagent based spectrophotometric; format: functional, organism-based; details: 3D7, 48 h
Plasmodium falciparum [19] = assay: Antiplasmodial activity against chloroquine resistant Plasmodium falciparum RKL9 infected in human erythrocyte assessed as inhibition of parasite growth incubated for 24 hrs by three fold serial dilution assay; format: functional
Plasmodium falciparum [20] = assay: Antiplasmodial activity against Plasmodium falciparum 3D7 assessed as inhibition of parasite growth incubated for 72 hrs by LDH assay based spectrofluorometric analysis; format: functional, organism-based; details: 3D7, 72 h
Plasmodium falciparum [21] = assay: Antiplasmodial activity against chloroquine resistant Plasmodium falciparum Dd2 assessed as inhibition of parasite growth incubated for 72 hrs by LDH assay based spectrofluorometric analysis; format: functional, organism-based; details: Dd2, 72 h

MIC (Plasmodium falciparum [1]): 10 µg/mL (≈ 26.6 µM)
Compound: Cc1ccc(C2=C/C(=C/c3cc4cc(C)ccc4nc3Cl)C(=O)O2)c(C)c1

Compound: COC(=O)[C@H](Cc1ccc(O)c(-c2ccc(Br)cc2)c1)NC(=O)C(=O)c1c[nH]c2ccccc12
Activity (Plasmodium falciparum [2]): 60%
pEC50 (Plasmodium falciparum [3]): 5.43

Compound: COC(=O)[C@H](Cc1ccc(O)c(C(=O)OCc2ccc(Nc3ccccc3)cc2)c1)NC(=O)C(=O)c1c[nH]c2ccccc12
Activity (Plasmodium falciparum [2]): 60%

pKi (Falcipain 2): 5.57
Compound: N=C(NC(=O)OCc1ccccc1)NC(=O)c1ccc(C(=O)OCc2ccccc2)o1

Compound: Oc1c(/C=N/c2ccccc2/N=C/c2cccc(CN3CCOCC3)c2O)cccc1CN1CCNCC1
pIC50 (Plasmodium falciparum [4]): 5.64

Compound: COC(=O)[C@H](Cc1ccc(O)c(-c2ccc(C(F)(F)F)cc2)c1)NC(=O)C(=O)c1c[nH]c2ccccc12
Activity (Plasmodium falciparum [2]): 60%

Compound: COc1ccc(/C=C/C(=O)c2ccc(-n3cnc4ccccc43)cc2)c(OC)c1
IC50 (Plasmodium falciparum [5]): 1.1 µg/mL (≈ 2.86 µM)

Compound: COC(=O)[C@H](Cc1ccc(O)c(I)c1)NC(=O)C(=O)c1c[nH]c2ccccc12
Activity (Plasmodium falciparum [2]): 20%

Compound: Oc1ccccc1/N=C/c1cccc(CN2CCOCC2)c1O
pIC50 (Plasmodium falciparum [4]): 5.64

Retention_time [6]: 23 min
Compound: C[C@H](C[C@H](O)[C@@H](O)C(C)(C)O)C1=C2C[C@H](O)[C@H]3[C@@]4(C)CCC(=O)C(C)(C)[C@@H]4CC[C@]3(C)[C@@]2(C)CC1 [ALISOL A]
pIC50 (Plasmodium falciparum [7]): 4.86

Compound: N=C(N)c1ccc(-c2cn(-c3cccc(C(=N)N)c3)nn2)cc1
pIC50 (Plasmodium falciparum [8]): 6.56

Compound: CCN(Cc1cc(C2(C)OOC(c3ccccn3)OO2)ccc1O)c1ccccc1 (configuration not stated)
IC50 (Plasmodium falciparum [9]): 5.3 µg/mL (≈ 13 µM)

Compound: CC1(C)C2CC=C(CC(=O)Oc3ccnc4cc(Cl)ccc34)[C@@H]1C2
pEC50 (Plasmodium falciparum [10]): < 4.30
pEC50 (Plasmodium falciparum [11]): 6.79
pEC50 (Plasmodium falciparum [12]): 4.63
selectivity ratio [13]: 0.7
CC50 at 72 h [14]: > 160000 nM
selectivity ratio [15]: > 976

Compound: CC1(C)C2CC=C(CC(=O)Nc3ccnc4cc(Cl)ccc34)[C@@H]1C2
pEC50 (Plasmodium falciparum [10]): 4.77
pEC50 (Plasmodium falciparum [11]): 5.11
pEC50 (Plasmodium falciparum [12]): 4.67
selectivity ratio [13]: 0.7
selectivity ratio [16]: 0.8
CC50 at 72 h [14]: 14300 nM
selectivity ratio [15]: 1.8

Compound: C=CC(C)(C)c1cc(/C=C/C(=O)c2ccc(O)cc2)c(OC)cc1O [LICOAGROCHACONE A]
IC50 (Plasmodium falciparum [5]): 1.43 µg/mL (≈ 4.23 µM)

Compound: Oc1ccc(/N=C/c2cccc(CN3CCOCC3)c2O)cc1
pIC50 (Plasmodium falciparum [4]): 5.64

Retention_time [6]: 23 min
Compound: C=C(C)[C@H](O)[C@@H](O)C[C@@H](C)C1=C2C[C@H](O)[C@H]3[C@@]4(C)CCC(=O)C(C)(C)[C@@H]4CC[C@]3(C)[C@@]2(C)CC1
pIC50 (Plasmodium falciparum [7]): 5.16

MIC (Plasmodium falciparum [1]): 50 µg/mL (≈ 138 µM)
Compound: Cc1ccc(C2=C/C(=C/c3cc4cc(C)ccc4nc3Cl)C(=O)O2)cc1

Compound: O=C(Nc1ccc([C@@H]2[C@H](Oc3ccc(Cl)cc3Cl)C(=O)N2c2ccc(Cl)cc2)cc1)N1CCOCC1
pIC50 (Plasmodium falciparum [17]): 4.59

Compound: CC(=O)Nc1cc(-c2ccc(F)cc2)cc2cc(-c3ccc(F)cc3)[nH]c12
pIC50 (Plasmodium falciparum [18]): 5.84

Compound: CCN(Cc1cc(C2(C)OOC(c3cccs3)OO2)ccc1O)c1ccccc1 (configuration not stated)
IC50 (Plasmodium falciparum [9]): 5.3 µg/mL (≈ 12.8 µM)

Compound: O=C(N/N=C/c1ccc(O)cc1)c1ccncc1
inhibition (INH) (Plasmodium falciparum [19]): 90%

Compound: CCN(Cc1cc(C2(C)OOC(c3ccco3)OO2)ccc1O)c1ccccc1 (configuration not stated)
IC50 (Plasmodium falciparum [9]): 5.3 µg/mL (≈ 13.3 µM)

Compound: C/C1=C\[C@H](C)CC[C@@H](O)/C(C)=C/[C@H](C)C[C@@H](C)CC[C@@H]([C@@H](C)C(=O)O)OC(=O)[C@@H](C)C1
pIC50 (Plasmodium falciparum [20]): 7.89
pIC50 (Plasmodium falciparum [21]): 7.49

Compound: C/C1=C\[C@H](C)C(=O)C[C@@H](O)/C(C)=C/[C@H](C)C[C@@H](C)CC[C@@H]([C@@H](C)C(=O)O)OC(=O)[C@@H](C)C1
pIC50 (Plasmodium falciparum [20]): 6.91

Compound: COC(=O)[C@H](Cc1ccc(O)c(-c2cccc(O)c2)c1)NC(=O)C(=O)c1c[nH]c2ccccc12
Activity (Plasmodium falciparum [2]): 60%

Compound: N=C(N)c1ccc(-n2cc(-c3cccc(C(=N)N)c3)nn2)cc1
pIC50 (Plasmodium falciparum [8]): 6.36
